Here are results for 15 molecules from patent US20240208992A1, “MACROCYCLES AS CFTR MODULATORS” (Idorsia Pharmaceuticals Ltd, priority 2021, published 2024).

The target in this experiment is human F508del-CFTR (Homo sapiens, UniProt P13569, DEL508-508). Kind of experiment: F508del-CFTR cell surface expression (corrector activity), DiscoveRx ß-galactosidase complementation chemiluminescence assay in recombinant U2OS cell line.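 On all read-outs here: U2OS cells co-expressing ProLink-tagged F508del-CFTR and a membrane-anchored enzyme acceptor, where more surface CFTR restores β-galactosidase activity measured by chemiluminescence.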 The conditions noted are these: for EC50: EC50, F508del-CFTR cell surface expression, U2OS cells, 16h compound incubation, geomean values; for Emax: U2OS, in relation to Emax of corrector lumacaftor (=100%), arithmetic mean values.
Sequence of human F508del-CFTR (P13569 with tags, fused parts or gaps DEL508-508): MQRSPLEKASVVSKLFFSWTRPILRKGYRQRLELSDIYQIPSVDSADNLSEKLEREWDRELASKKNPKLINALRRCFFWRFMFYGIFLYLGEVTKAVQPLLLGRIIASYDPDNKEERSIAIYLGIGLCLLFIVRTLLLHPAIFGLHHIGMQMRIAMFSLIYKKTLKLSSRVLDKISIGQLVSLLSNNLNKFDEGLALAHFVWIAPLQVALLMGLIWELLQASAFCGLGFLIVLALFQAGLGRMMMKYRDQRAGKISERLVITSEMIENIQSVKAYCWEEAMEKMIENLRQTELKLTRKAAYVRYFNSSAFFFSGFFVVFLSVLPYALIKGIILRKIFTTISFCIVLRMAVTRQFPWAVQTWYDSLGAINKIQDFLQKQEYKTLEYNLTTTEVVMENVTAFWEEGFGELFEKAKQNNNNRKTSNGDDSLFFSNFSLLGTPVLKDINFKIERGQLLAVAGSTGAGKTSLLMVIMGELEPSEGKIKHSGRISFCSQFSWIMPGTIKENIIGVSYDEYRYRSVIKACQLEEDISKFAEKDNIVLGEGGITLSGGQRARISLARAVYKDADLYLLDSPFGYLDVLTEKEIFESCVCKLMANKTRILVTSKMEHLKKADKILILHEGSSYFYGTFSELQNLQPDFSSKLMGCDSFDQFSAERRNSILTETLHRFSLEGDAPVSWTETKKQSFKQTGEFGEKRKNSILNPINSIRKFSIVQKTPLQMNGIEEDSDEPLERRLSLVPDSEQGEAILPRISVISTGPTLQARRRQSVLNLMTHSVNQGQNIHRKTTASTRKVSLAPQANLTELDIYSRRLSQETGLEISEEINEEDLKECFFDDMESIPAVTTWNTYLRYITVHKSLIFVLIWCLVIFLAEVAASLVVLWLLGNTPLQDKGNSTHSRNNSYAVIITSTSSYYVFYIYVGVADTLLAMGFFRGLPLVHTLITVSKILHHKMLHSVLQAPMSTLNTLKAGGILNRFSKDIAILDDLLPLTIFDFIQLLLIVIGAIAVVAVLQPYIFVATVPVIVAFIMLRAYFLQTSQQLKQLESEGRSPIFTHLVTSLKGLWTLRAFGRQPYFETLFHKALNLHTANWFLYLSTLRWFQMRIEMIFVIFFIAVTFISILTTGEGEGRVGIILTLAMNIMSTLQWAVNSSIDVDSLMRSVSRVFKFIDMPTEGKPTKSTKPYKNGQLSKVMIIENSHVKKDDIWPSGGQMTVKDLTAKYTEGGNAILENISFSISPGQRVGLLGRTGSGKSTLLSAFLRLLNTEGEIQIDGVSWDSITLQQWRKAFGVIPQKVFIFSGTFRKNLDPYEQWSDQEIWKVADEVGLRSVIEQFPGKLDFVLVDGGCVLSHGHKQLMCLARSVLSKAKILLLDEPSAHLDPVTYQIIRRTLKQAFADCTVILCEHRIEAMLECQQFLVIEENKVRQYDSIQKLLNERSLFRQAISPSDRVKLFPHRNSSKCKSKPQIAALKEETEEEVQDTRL

By EC50 is commonly meant the concentration at which the effect is half-maximal. As usually defined, the Emax is the greatest response seen or fitted, relative to the assay's reference.

Turning to `COc1cc2c(cc1OC)C(=O)N[C@H](C(=O)NCCc1ccc3c(c1)OCC3)CC(=O)N(C)[C@@H](CC(C)C)C(=O)N(CCC1CCCCC1)CC(=O)N[C@H](Cc1ccccc1)CO2` [Example 597, (3R,9S,13S)-3-benzyl-7-(2-cyclohexylethyl)-N-(2-(2,3-dihydrobenzofuran-6-yl)ethyl)-9-isobutyl-17,18-dimethoxy-10-methyl-5,8,11,15-tetraoxo-2,3,4,5,6,7,8,9,10,11,12,13,14,15-tetradecahydrobenzo[p][1]oxa[4,7,10,14]tetraazacycloheptadecine-13-carboxamide], the EC50 was found to be 0.168 µM and the Emax was determined as 211%.

As to `COc1cccc(CCNC(=O)[C@@H]2CC(=O)N(C)[C@@H](CC(C)C)C(=O)N(C)CC(=O)N[C@H](Cc3ccccc3)COc3ccc4nc(C)oc4c3C(=O)N2)c1` [Example 598, (8R,14S,18S)-8-benzyl-14-isobutyl-N-(3-methoxyphenethyl)-2,12,15-trimethyl-10,13,16,20-tetraoxo-7,8,9,10,11,12,13,14,15,16,17,18,19,20-tetradecahydrooxazolo[4′,5′:5,6]benzo[1,2-p][1]oxa[4,7,10,14]tetraazacycloheptadecine-18-carboxamide], the EC50 was determined as 0.759 µM and the Emax came out at 312%.

With `CC(C)C[C@H]1C(=O)N(CCC2CCCCC2)CC(=O)N[C@H](Cc2ccccc2)COc2ccc3ccccc3c2C(=O)N[C@H](C(=O)NCCc2ccc3c(c2)OCCC3)CC(=O)N1C` [Example 599, (3S,7S,13R)-13-benzyl-N-(2-(chroman-7-yl)ethyl)-9-(2-cyclohexylethyl)-7-isobutyl-6-methyl-1,5,8,11-tetraoxo-1,2,3,4,5,6,7,8,9,10,11,12,13,14-tetradecahydronaphtho[1,2-p][1]oxa[4,7,10,14]tetraazacycloheptadecine-3-carboxamide], the concentration giving a half-maximal response (EC50) is 0.151 µM and the Emax came to 299%.

For the molecule `CC(C)C[C@H]1C(=O)N(CCC2CCCCC2)CC(=O)N[C@H](Cc2ccccc2)COc2ccc3ccccc3c2C(=O)N[C@H](C(=O)NCCc2ccc3c(c2)OCC3)CC(=O)N1C` [Example 600, (3S,7S,13R)-13-benzyl-9-(2-cyclohexylethyl)-N-(2-(2,3-dihydrobenzofuran-6-yl)ethyl)-7-isobutyl-6-methyl-1,5,8,11-tetraoxo-1,2,3,4,5,6,7,8,9,10,11,12,13,14-tetradecahydronaphtho[1,2-p][1]oxa[4,7,10,14]tetraazacycloheptadecine-3-carboxamide], the EC50 worked out at 0.097 µM and the Emax was 286%.

On to `COc1cccc(CCNC(=O)[C@@H]2CC(=O)N(C)[C@@H](CC(C)C)C(=O)N3CCCC[C@H]3C(=O)N[C@H](Cc3ccccc3)COc3cc(OC)cc(OC)c3C(=O)N2)c1` [Example 601, (7S,11S,20R,22aS)-20-benzyl-7-isobutyl-14,16-dimethoxy-N-(3-methoxyphenethyl)-8-methyl-6,9,13,22-tetraoxo-1,3,4,6,7,8,9,10,11,12,13,19,20,21,22,22a-hexadecahydro-2H-benzo[p]pyrido[2,1-f][1]oxa[4,7,10,14]tetraazacycloheptadecine-11-carboxamide], for which the EC50 is 0.589 µM and the Emax was 138%.

For the molecule `COc1cccc(CCNC(=O)[C@@H]2CC(=O)N(C)[C@@H](CC(C)C)C(=O)N3CCCC[C@@H]3C(=O)N[C@H](Cc3ccccc3)COc3cc(OC)cc(OC)c3C(=O)N2)c1` [Example 602, (7S,11S,20R,22aR)-20-benzyl-7-isobutyl-14,16-dimethoxy-N-(3-methoxyphenethyl)-8-methyl-6,9,13,22-tetraoxo-1,3,4,6,7,8,9,10,11,12,13,19,20,21,22,22a-hexadecahydro-2H-benzo[p]pyrido[2,1-f][1]oxa[4,7,10,14]tetraazacycloheptadecine-11-carboxamide], the EC50 came out at 0.286 µM and the Emax came out at 299%.

As to `COc1cccc(CCNC(=O)[C@@H]2CC(=O)N(C)[C@@H](CC(C)C)C(=O)N3CCCC[C@@H]3C(=O)N[C@H](Cc3ccccc3)COc3ccc4ccccc4c3C(=O)N2)c1` [Example 603, (4aR,7R,18S,22S)-7-benzyl-22-isobutyl-N-(3-methoxyphenethyl)-21-methyl-5,16,20,23-tetraoxo-2,3,4,4a,5,6,7,8,16,17,18,19,20,21,22,23-hexadecahydro-1H-naphtho[1,2-p]pyrido[2,1-f][1]oxa[4,7,10,14]tetraazacycloheptadecine-18-carboxamide], the EC50 came to 0.205 µM and the maximum response (Emax) turned out to be 301%.

With `COc1cccc(CCNC(=O)[C@@H]2CC(=O)N(C)[C@@H](CC(C)C)C(=O)N3CCCC[C@H]3C(=O)N[C@H](Cc3ccccc3)COc3ccc4ccccc4c3C(=O)N2)c1` [Example 604, (4aS,7R,18S,22S)-7-benzyl-22-isobutyl-N-(3-methoxyphenethyl)-21-methyl-5,16,20,23-tetraoxo-2,3,4,4a,5,6,7,8,16,17,18,19,20,21,22,23-hexadecahydro-1H-naphtho[1,2-p]pyrido[2,1-f][1]oxa[4,7,10,14]tetraazacycloheptadecine-18-carboxamide], the EC50 came out at 0.354 µM and the Emax came out at 103%.

As for `CCN1CCN2C(=O)[C@H](CC(C)C)N(C)C(=O)C[C@@H](C(=O)NCCc3cccc(OC)c3)NC(=O)c3c(OC)cccc3OC[C@@H](Cc3ccccc3)NC(=O)[C@H]2C1` [Example 605, (7S,11S,20R,22aR)-20-benzyl-2-ethyl-7-isobutyl-14-methoxy-N-(3-methoxyphenethyl)-8-methyl-6,9,13,22-tetraoxo-1,3,4,6,7,8,9,10,11,12,13,19,20,21,22,22a-hexadecahydro-2H-benzo[p]pyrazino[2,1-f][1]oxa[4,7,10,14]tetraazacycloheptadecine-11-carboxamide], the EC50 came out at 0.637 µM and the Emax was determined as 257%.

`Cc1cc(CCNC(=O)[C@@H]2CC(=O)N(C)[C@@H](CC(C)C)C(=O)N3CCCC[C@H]3C(=O)N[C@H](Cc3ccccc3)COc3ccc4ccccc4c3C(=O)N2)on1` [Example 606, (4aS,7R,18S,22S)-7-benzyl-22-isobutyl-21-methyl-N-(2-(3-methylisoxazol-5-yl)ethyl)-5,16,20,23-tetraoxo-2,3,4,4a,5,6,7,8,16,17,18,19,20,21,22,23-hexadecahydro-1H-naphtho[1,2-p]pyrido[2,1-f][1]oxa[4,7,10,14]tetraazacycloheptadecine-18-carboxamide]: the EC50 was 0.521 µM and the Emax was found to be 150%.

As to `Cc1cc(CCNC(=O)[C@@H]2CC(=O)N(C)[C@@H](CC(C)C)C(=O)N3CCCC[C@@H]3C(=O)N[C@H](Cc3ccccc3)COc3ccc4ccccc4c3C(=O)N2)on1` [Example 607, (4aR,7R,18S,22S)-7-benzyl-22-isobutyl-21-methyl-N-(2-(3-methylisoxazol-5-yl)ethyl)-5,16,20,23-tetraoxo-2,3,4,4a,5,6,7,8,16,17,18,19,20,21,22,23-hexadecahydro-1H-naphtho[1,2-p]pyrido[2,1-f][1]oxa[4,7,10,14]tetraazacycloheptadecine-18-carboxamide], the EC50 was determined as 0.121 µM and the maximal effect (Emax) stood at 283%.

Regarding `Cc1cc(CCNC(=O)[C@@H]2CC(=O)N(C)[C@@H](CC(C)C)C(=O)N3CCOC[C@@H]3C(=O)N[C@H](Cc3ccccc3)COc3ccc4ccccc4c3C(=O)N2)on1` [Example 608, (4aR,7R,18S,22S)-7-benzyl-22-isobutyl-21-methyl-N-(2-(3-methylisoxazol-5-yl)ethyl)-5,16,20,23-tetraoxo-1,2,4,4a,5,6,7,8,16,17,18,19,20,21,22,23-hexadecahydronaphtho[1,2-p][1,4]oxazino[3,4-f][1]oxa[4,7,10,14]tetraazacycloheptadecine-18-carboxamide], the concentration for a half-maximal effect (EC50) stood at 0.804 µM and the Emax stood at 267%.

Regarding `COc1cc(OC)c2c(c1)OC[C@@H](Cc1ccccc1)NC(=O)[C@H]1CCCCN1C(=O)[C@H](CC(C)C)N(C)C(=O)C[C@@H](C(=O)NCCc1cc(C)no1)NC2=O` [Example 609, (7S,11S,20R,22aR)-20-benzyl-7-isobutyl-14,16-dimethoxy-8-methyl-N-(2-(3-methylisoxazol-5-yl)ethyl)-6,9,13,22-tetraoxo-1,3,4,6,7,8,9,10,11,12,13,19,20,21,22,22a-hexadecahydro-2H-benzo[p]pyrido[2,1-f][1]oxa[4,7,10,14]tetraazacycloheptadecine-11-carboxamide], the EC50 stood at 0.574 µM and the Emax was found to be 320%.

With `CC(C)C[C@H]1C(=O)N(CCC2CCCCC2)CC(=O)N[C@H](Cc2ccccc2)COc2cnc3ccccc3c2C(=O)N[C@H](C(=O)NCCc2ccc3c(c2)OCO3)CC(=O)N1C` [Example 610, (3S,7S,13R)-N-(2-(benzo[d][1,3]dioxol-5-yl)ethyl)-13-benzyl-9-(2-cyclohexylethyl)-7-isobutyl-6-methyl-1,5,8,11-tetraoxo-1,2,3,4,5,6,7,8,9,10,11,12,13,14-tetradecahydro-[1]oxa[4,7,10,14]tetraazacycloheptadecino[17,16-c]quinoline-3-carboxamide], the EC50 worked out at 0.089 µM and the Emax amounted to 311%.

As for `COc1cccc(CCNC(=O)[C@@H]2CC(=O)N(C)[C@@H](CC(C)C)C(=O)N3CCN(C(C)C)C[C@@H]3C(=O)N[C@H](Cc3ccccc3)COc3cccc(OC)c3C(=O)N2)c1` [Example 611, (7S,11S,20R,22aR)-20-benzyl-7-isobutyl-2-isopropyl-14-methoxy-N-(3-methoxyphenethyl)-8-methyl-6,9,13,22-tetraoxo-1,3,4,6,7,8,9,10,11,12,13,19,20,21,22,22a-hexadecahydro-2H-benzo[p]pyrazino[2,1-f][1]oxa[4,7,10,14]tetraazacycloheptadecine-11-carboxamide], the EC50 stood at 0.344 µM and the Emax was 251%.
